Data taken from patent EP1707568A2, “A pharmaceutical composition for use in the treatment of ovarian cancer in a human afflicted therewith” (SMITHKLINE BEECHAM CORPORATION, priority 1991, dated 1992).
Like-named read-outs stand apart in the source and are kept apart here.

Columns and labels:
[1] = Stability of reconstituted topotecan solution further diluted in D5W or NS in plastic bags at room temperature; format: physicochemical; conditions: for Percentage of Initial Topotecan Remaining in Solution: 0 hrs; for remaining at 6 h / remaining at 24 h / remaining at 48 h: read-out: Percentage of Initial Topotecan Remaining in Solution
Experimental: Topotecan is currently undergoing Phase I clinical investigation. The following pharmaceutical information is being supplied to the clinicians: • How supplied - As a vial containing 5 mg (of the base) with 100 mg mannitol. The pH is adjusted to 3.0 with HCl/NaOH. Lyophilized powder is light yellow in color. Intact vials should be stored under refrigeration (2-8 degrees Centigrade). • Solution Preparation -When the 5 mg vial is reconstituted with 2 ml of Sterile Water for Injection, USP, each ml will contain 2.5 mg of topotecan as the base and 50 mg of mannitol, USP. Topotecan must not be diluted or mixed with buffered solutions because of solubility and stability considerations. • Stability - Shelf life surveillance of the intact vials is ongoing. Because the single-use lyophilized dosage form contains no antibacterial preservatives, it is advised that the reconstituted solution be discarded eight hours after initial entry into the vial. Futher dilutions of the reconstituted solution to concentrations of 0.02 mg/ml and 0.1 mg/ml in 5% Dextrose Injection, USP, ("D5W") or 0.9% Sodium Chloride Injection, USP, ("NS") in plastic bags stored at room temperature yielded the following stability results:
Percentage of Initial Topotecan Remaining in Solution

[2] = Hang-bag stability of topotecan diluted in saline or dextrose; format: physicochemical; conditions: read-out: recovery
Experimental: Topotecan diluted in saline (10 ug/ml or 500 ug/ml) or dextrose (6.7 ug/ml or 330 ug/ml) is stable in a hang-bag for 24 hours with at least 95% recovery.

[3] = tested on: ovarian cancer; experiment: Clinical treatment of a platinum-refractory ovarian cancer patient, tumor size evaluated by CAT scan; format: in vivo; conditions: one human patient, intravenous 1.5 mg/m^2 per day for five consecutive days
Experimental: One human patient with ovarian cancer, who was refractory to two previous platinum-containing regimens (i.e., cisplatin-cyclophosphamide combination regimen and treatment with single agent carboplatin), received a course of therapy comprising intravenous administration of 1.5 mg of topotecan/m^2 of body surface area per day for five consecutive days. This course of therapy was repeated […] nine more times to date at twenty-one day intervals (from the date of initiation of therapy) for a total of ten treatments. Tumor size regression was evaluated by CAT (computerized axial tomography) scan. […] At least until the tenth treatment, this clinically significant response was sustained, i.e., a greater than fifty percent (50%) tumor size regression was obtained.

With `CC[C@@]1(O)C(=O)OCc2c1cc1n(c2=O)Cc2cc3c(CN(C)C)c(O)ccc3nc2-1` [Topotecan, (S)-9-dimethylaminomethyl-10-hydroxycamptothecin] the “Percentage of Initial Topotecan Remaining in Solution” value ([1]; D5W, 0.02 mg/ml) was 100.00%, the “Percentage of Initial Topotecan Remaining in Solution” value ([1]; D5W, 0.1 mg/ml) was 100.00% and the “Percentage of Initial Topotecan Remaining in Solution” value ([1]; NS, 0.02 mg/ml) was 100.00%. The “Percentage of Initial Topotecan Remaining in Solution” value ([1]; NS, 0.1 mg/ml) was 100.00%, the remaining at 6 h ([1]; d5w, 0.02 mg/ml) was 99.3% and the remaining at 6 h ([1]; d5w, 0.1 mg/ml) was 99.7%. The remaining at 24 h ([1]; d5w, 0.02 mg/ml) was 102%, the remaining at 24 h ([1]; d5w, 0.1 mg/ml) was 98.2% and the remaining at 48 h ([1]; d5w, 0.02 mg/ml) was 102%. It also gave a remaining at 48 h ([1]; d5w, 0.1 mg/ml) of 97.9%, a remaining at 6 h ([1]; ns, 0.02 mg/ml) of 98.6% and a remaining at 6 h ([1]; ns, 0.1 mg/ml) of 97.7%. It also gave a remaining at 24 h ([1]; ns, 0.02 mg/ml) of 96%, a remaining at 24 h ([1]; ns, 0.1 mg/ml) of 98.3% and a remaining at 48 h ([1]; ns, 0.02 mg/ml) of 102%. For the same compound, the remaining at 48 h ([1]; ns, 0.1 mg/ml) was 98.3%, the remaining at 24 h ([2]; dextrose, 6.7 ug/ml) was no less than 95% and the remaining at 24 h ([2]; saline, 10 ug/ml) was no less than 95%. The Tumor size regression ([3]; following four courses) was “An even greater response was observed”, the Tumor size regression ([3]; following two courses of therapy) was “Tumor size regression was observed” and the Tumor size regression ([3]; sustained at least until the tenth treatment) was greater than 50%.
